{
  "source": "patent US6365621B1",
  "about": "“Remedies or preventives for intractable epilepsy” (Pharmaceutical Co., Ltd., priority 1998, dated 2002)",
  "key": {"[1]": {"system": "kainate-induced amygdala seizures", "type": "in vivo, rat", "experimental": "[Method for measuring an electrophysiological effect] The following operation was performed by use of 19 Wistar male rats (Japan SLC Co.) each having a weight of 250-350 g. Each rat was anesthetized by pentobarbital and fixed in a stereotaxic apparatus. […] Subsequently, a bipolar depth electrode having a diameter of 0.2 mm were inserted into bilateral amygdala (A, +5.0; L, +−5.0; D, −3.0) and hippocampus (A, +3.0; L, +−3.2; D, +1.5). Screw electrodes were set at the left sensorimotor area (A, +1.0 (from bregam); L, +−2.5; D, 0.5 (from dura)), frontal sinus, and occipital median. The electrodes were connected to sockets, and the cannula, the electrodes, and the sockets were fixed on the cranium by use of dental cement. Seven days after operation, 1 μL of a solution of kainic acid dissolved in phosphoric acid buffer (1 mg/ml) was injected through the cannula (rate: […]) (n=12), so as to induce limbic system seizures. The electrodes were connected to an electroencephalograph, and the behavior of the rat in a cage was observed. An electroencephalogram was recorded by use of the electrode at the frontal sinus serving as an indifferent electrode and the electrode at the occipital median serving as ground. The behavior and electroencephalogram were simultaneously recorded by use of a video electroencephalogram recorder based on an electroencephalograph (SYNAFIT 1000; NEC San-ei Instruments, LTD.).\nOne to two hours after the injection of kainic acid, when a limbic system seizure was in status epilepticus, nefiracetam dissolved in saline (10 mg/mL) was slowly injected into a caudal vein in an amount selected from 10, 50, 100, and 200 mg/kg (n=12). The same amount of saline was injected into a vein of rats of the control group (n=7). Subsequently, behavior and electroencephalograms of the rat were continuously recorded for at least eight hours, followed by two-hour recording after 24 hours, 48 hours, and 72 hours. Changes in clinical seizure and electroencephalogram observations just after the injection of the nefiracetam solution or saline, and occurrence of seizures and electroencephalogram observations after 24, 48, and 72 hours were measured, and the results were evaluated on the basis of the comparison."}, "[2]": {"system": "amygdala kindling development in rats", "experiment": "Development/establishment of amygdala kindling under daily dosing", "type": "in vivo, rat", "experimental": "The present inventors have studied the effects of nefiracetam on an development process of the amygdaloid kindled seizures and on establishment of kindling through a method described below, and have determined the efficacy of nefiracetam. The evolution process of kindling is tested by use of rats, in which electrodes are placed in the amygdala and kindling stimulation (50 Hz sine wave, duration of 1 second, once per day) is applied at specific intervals for restoration. On the first day, an afterdischarge-provocation threshold is determined without administration of a pharmaceutical. From the second day, kindling stimulation having intensity of the afterdischarge-provocative threshold is applied to rats administered with a specimen at a variety of administration doses, to thereby investigate an effect of the specimen on the evolution process of kindling.\nIn this test, the following parameters were evaluated: seizure stage in the process of development of amygdala kindling and afterdischarge duration at the stimulated amygdala.\n[Method] Male Wistar rats (5 to 6 weeks old, weight: 200-250 g, Tokyo Jikken Dobutsu) were used. For each rat, in a manner similar to that in Example 1, there were performed anesthetization, setting of an electrode on the amygdala, and fixation of the electrode at the cranial bone. After a recovery period of at least two weeks, kindling stimulation was initiated.\nKindling stimulation was performed for one second per day with a sine wave of 50 Hz. On the first day, the afterdischarge threshold was determined, and from the second day, kindling stimulation was performed at the intensity of the threshold. On the first day, nefiracetam was not administered, in order to determine the threshold. For twenty days from the second day, a dose of nefiracetam (45, 90, or 180 mg/kg) was administered orally, and then kindling stimulation was performed 90 minutes after administration. After nefiracetam was administered for twenty days, kindling stimulation was performed without administration for an additional seven days."}, "[3]": {"conditions": "10 mg/kg i.v., EEG, individual rat"}, "[4]": {"conditions": "50 mg/kg i.v., EEG, individual rat"}, "[5]": {"conditions": "100 mg/kg i.v., EEG, individual rats"}, "[6]": {"conditions": "200 mg/kg i.v., EEG, individual rats"}, "[7]": {"conditions": "200 mg/kg i.v., individual rats"}, "[8]": {"conditions": "Test 1, 90 mg/kg p.o. daily for twenty days"}, "[9]": {"conditions": "Test 2, 45 mg/kg p.o. daily for twenty days"}, "[10]": {"conditions": "Test 2, 180 mg/kg p.o. daily for twenty days"}},
  "note": "Where “and” joins values, the source holds several entries; their conditions need not be identical. Equal values may be shown once. Read-outs that look alike come from different tables or passages of the source. Throughout, for Spikes from the amygdala after 24 h: key: (+): effective; (−): ineffective. Throughout, for Spikes from the amygdala after 48 h: key: (+): effective; (−): ineffective. Throughout, for Spikes from the amygdala after 72 h: key: (+): effective; (−): ineffective. Throughout, for Spikes from the amygdala just after intravenous injection: key: (+): effective; (−): ineffective.",
  "data": [
    {"smiles": "Cc1cccc(C)c1NC(=O)CN1CCCC1=O", "note": "[nefiracetam, N-(2,6-dimethylphenyl)-2-(2-oxo-1-pyrrolidinyl)acetamide]", "values": [
      {"measurement": "Disappearance of seizures intravenous injection", "setting": "[1]; 10 mg/kg i.v. during status epilepticus, individual rat", "value": "−"},
      {"measurement": "Spikes from the amygdala after 24 h", "setting": "[1]; [3]", "value": "+"},
      {"measurement": "Spikes from the amygdala just after intravenous injection", "setting": "[1]; [3]", "value": "+"},
      {"measurement": "Sedative action", "setting": "[1]; 10 mg/kg i.v., individual rat", "value": "−"},
      {"measurement": "Disappearance of seizures intravenous injection", "setting": "[1]; 50 mg/kg i.v. during status epilepticus, individual rat", "value": "−"},
      {"measurement": "Spikes from the amygdala after 24 h", "setting": "[1]; [4]", "value": "+"},
      {"measurement": "Spikes from the amygdala just after intravenous injection", "setting": "[1]; [4]", "value": "+"},
      {"measurement": "Sedative action", "setting": "[1]; 50 mg/kg i.v., individual rat", "value": "−"},
      {"measurement": "Duration of sedative action after injection", "setting": "[1]; 100 mg/kg i.v.", "value": "30 to 60", "unit": "min"},
      {"measurement": "Disappearance of seizures intravenous injection", "setting": "[1]; 100 mg/kg i.v. during status epilepticus, individual rats", "value": "−"},
      {"measurement": "Spikes from the amygdala after 24 h", "setting": "[1]; [5]", "value": "+"},
      {"measurement": "Spikes from the amygdala just after intravenous injection", "setting": "[1]; [5]", "value": "+"},
      {"measurement": "Sedative action", "setting": "[1]; 100 mg/kg i.v., individual rats", "value": "+"},
      {"measurement": "Duration of sedation from just after the injection", "setting": "[1]; 200 mg/kg and 100 mg/kg i.v., approximately", "value": "60 to 90", "unit": "min"},
      {"measurement": "Rats in which seizures were not suppressed (behavior and electroencephalogram)", "setting": "[1]; 200 mg/kg i.v.", "value": "3 out of the 8"},
      {"measurement": "Disappearance of seizures intravenous injection", "setting": "[1]; 200 mg/kg i.v. during status epilepticus, individual rats", "value": "+ (5×) and − (3×)"},
      {"measurement": "Spikes from the amygdala after 24 h", "setting": "[1]; [6]", "value": "− (3×) and + (4×)"},
      {"measurement": "Spikes from the amygdala after 48 h", "setting": "[1]; [6]", "value": "− (3×) and + (3×)"},
      {"measurement": "Spikes from the amygdala after 72 h", "setting": "[1]; [6]", "value": "− (3×) and + (3×)"},
      {"measurement": "Spikes from the amygdala just after intravenous injection", "setting": "[1]; [6]", "value": "− (4×) and + (4×)"},
      {"measurement": "Rats in which spikes corresponding to the amygdala disappeared from electroencephalogram", "setting": "[1]; 200 mg/kg i.v., among the 5 rats whose seizures disappeared", "value": "4 out of the 5"},
      {"measurement": "Disappearance period of seizures after intravenous injection", "setting": "[1]; [7]", "value": "5 min and 35 min"},
      {"measurement": "Sedative action", "setting": "[1]; [7]", "value": "+"},
      {"measurement": "Death after intravenous injection (time)", "setting": "[1]; 200 mg/kg i.v., rat N5", "value": 25, "unit": "min"},
      {"measurement": "Rats in which seizures disappeared after injection", "setting": "[1]; 200 mg/kg i.v., seizures later reappeared", "value": "5 out of 8"},
      {"measurement": "Changes in paroxysmal behavior or electroencephalograms", "setting": "[1]; 10, 50, or 100 mg/kg i.v. during status epilepticus", "value": "no apparent changes"},
      {"measurement": "Day on which stage 5 was reached", "setting": "[2]; 90 mg/kg, typical rat (control: ninth day)", "value": "tenth day"},
      {"measurement": "Day on which seizure stage began to progress", "setting": "[2]; 90 mg/kg, typical rat (control: third day)", "value": "sixth day"},
      {"measurement": "Number of stimulations until the completion of stage 5 versus control rats", "setting": "[2]; 45, 90 or 180 mg/kg p.o. daily", "value": "no difference was observed"},
      {"measurement": "Number of samples showing an increase in afterdischarge threshold/total samples", "setting": "[2]; [8]", "value": "3/6"},
      {"measurement": "Number of samples showing stage 5 intermittently/total samples", "setting": "[2]; [8]", "value": "4/6"},
      {"measurement": "Number of samples showing an increase in afterdischarge threshold/total samples", "setting": "[2]; [9]", "value": "0/4"},
      {"measurement": "Number of samples showing stage 5 intermittently/total samples", "setting": "[2]; [9]", "value": "0/4"},
      {"measurement": "Number of samples showing an increase in afterdischarge threshold/total samples", "setting": "[2]; [10]", "value": "2/6"},
      {"measurement": "Number of samples showing stage 5 intermittently/total samples", "setting": "[2]; [10]", "value": "5/6"},
      {"measurement": "Stimulation intensity at which afterdischarge was shown", "setting": "[2]; one nefiracetam-administered rat, eleventh day", "value": 150, "unit": "μA"},
      {"measurement": "Seizure stage", "setting": "[2]; one nefiracetam-administered rat, eleventh day, 150 μA", "value": 4}
    ]}
  ]
}
